The results in this text go back to US20260325685A1, “Radiopharmaceutical Compositions Targeting Carbonic Anhydrase IX and Uses Thereof” (RayzeBio, Inc., priority 2023, published 2026).

pKd: −log10 of the molar value. Where two headings read alike, the source gives them in different places.

Broadly, the pKd is −log10 of the Kd, conventionally taken in molar units.

In one experiment the target is T1, human CA-IX (Homo sapiens, UniProt Q16790).
T1 construct: purchased Acro CA9-H82E3
Kind of experiment: Surface Plasmon Resonance (SPR) binding kinetics to recombinant human CA-IX (Biacore 8K, single-cycle kinetics, 1:1 binding model). The method, boiled down:
(§1)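 Kinetics are measured at 25° C against streptavidin-captured CA-IX or CA-XII (1200-1800 RU) in PBS-P+ buffer, pH 7.4, containing 1% DMSO. Nine analyte concentrations span 100-0.39 nM, with 1200 s dissociation.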
For orientation: Surface plasmon resonance follows binding to a sensor surface in real time, without labels.

The target in another experiment is T2, human CA-XII (Homo sapiens, UniProt O43570).
T2 construct: purchased Creative BioMart CA12-261H
T2 sequence (O43570 25-354): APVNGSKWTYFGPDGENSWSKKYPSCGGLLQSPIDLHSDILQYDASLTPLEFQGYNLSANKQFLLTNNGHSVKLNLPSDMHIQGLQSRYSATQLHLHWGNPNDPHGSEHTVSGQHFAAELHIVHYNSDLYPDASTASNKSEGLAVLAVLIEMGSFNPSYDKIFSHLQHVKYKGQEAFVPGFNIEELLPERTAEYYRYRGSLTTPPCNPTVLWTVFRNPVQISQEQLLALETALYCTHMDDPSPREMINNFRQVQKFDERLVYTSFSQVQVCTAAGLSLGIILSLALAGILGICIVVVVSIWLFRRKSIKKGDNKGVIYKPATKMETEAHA
Kind of experiment: Surface Plasmon Resonance (SPR) binding kinetics to recombinant human CA-XII (Biacore 8K, single-cycle kinetics, 1:1 binding model). Put shortly:
as §1

Where [1] appears, read: read-out: CAIX KD; Chelated Metal: Lu-175; SPR, 25° C., pH 7.4.
The mark [2] stands for this setting: read-out: CAXII KD, Chelated Metal: Lu-175, 25° C., pH 7.4.
Where [3] appears, read: Chelated Metal: Lu-175; SPR, 25° C., pH 7.4; read-out: CAIX KD.
The mark [4] stands for this setting: Chelated Metal: Lu-175, 25° C., pH 7.4, read-out: CAXII KD.

`NS(=O)(=O)c1nnc(NC(=O)C23CC(c4cn(CCNC(=O)[C@@H]5CN(C(=O)CN6CCN(CC(=O)O)CCN(CC(=O)O)CCN(CC(=O)O)CC6)CCN5C(=O)CNC(=O)C5(C(=O)O)CCN(C(=O)c6ccc(C7CC7)nn6)CC5)nn4)(C2)C3)s1.[Lu+3]` [Compound 112]: the pKd at human CA-IX (setting [1]) was 8.00 to 8.60; at human CA-XII (setting [2]), less than 8.00.
For `NC(=O)C1(C(=O)NCC(=O)N2CCN(C(=O)CN3CCN(CC(=O)O)CCN(CC(=O)O)CCN(CC(=O)O)CC3)C[C@H]2C(=O)NCCn2cc(C34CC(C(=O)Nc5nnc(S(N)(=O)=O)s5)(C3)C4)nn2)CCN(C(=O)c2ccc(C3CC3)nn2)CC1.[Lu+3]` [Compound 113], the pKd is 8.00 to 8.60 on human CA-IX (setting [1]) and less than 8.00 at human CA-XII (setting [2]).
Take `NS(=O)(=O)c1nnc(NC(=O)C23CC(c4cn(C[C@H]5CN(C(=O)CN6CCN(CC(=O)O)CCN(CC(=O)O)CCN(CC(=O)O)CC6)CCN5C(=O)C[C@H](NC(=O)[C@@H]5COCCN5C(=O)Cc5n[nH]c6ccccc56)C(=O)O)nn4)(C2)C3)s1.[Lu+3]` [Compound 114.1]: the figures for the pKd at human CA-IX (setting [3]) and at human CA-XII (setting [4]) were 8.60 to 9.00 and less than 8.00, respectively.
For `NS(=O)(=O)c1nnc(NC(=O)C23CC(c4cn(C[C@H]5CN(C(=O)CN6CCN(CC(=O)O)CCN(CC(=O)O)CCN(CC(=O)O)CC6)CCN5C(=O)[C@@H]5COCCN5C(=O)Cc5n[nH]c6ccccc56)nn4)(C2)C3)s1.[Lu+3]` [Compound 114.2] the same measures were 8.60 to 9.00 and less than 8.00.
As to `NS(=O)(=O)c1nnc(NC(=O)C23CC(c4cn(C[C@H]5CN(C(=O)CN6CCN(CC(=O)O)CCN(CC(=O)O)CCN(CC(=O)O)CC6)CCN5C(=O)[C@@H]5COCCN5C(=O)CCc5n[nH]c6ccccc56)nn4)(C2)C3)s1.[Lu+3]` [Compound 114.3], the figures for the negative-log Kd (pKd) on human CA-IX (setting [3]) and on human CA-XII (setting [4]) were 8.60 to 9.00 and less than 8.00, respectively.
Turning to `CC(CCC(=O)N1CCOC[C@H]1C(=O)N[C@@H](CC(=O)N1CCN(C(=O)CN2CCN(CC(=O)O)CCN(CC(=O)O)CCN(CC(=O)O)CC2)C[C@@H]1Cn1cc(C23CC(C(=O)Nc4nnc(S(N)(=O)=O)s4)(C2)C3)nn1)C(=O)O)(c1ccc(O)cc1)c1ccc(O)cc1.[Lu+3]` [Compound 114], the negative-log Kd (pKd) on human CA-IX (setting [1]) was 8.60 to 9.00; on human CA-XII (setting [2]), less than 8.00.
For `NS(=O)(=O)c1nnc(NC(=O)C23CC(c4cn(C[C@H]5CN(C(=O)CN6CCN(CC(=O)O)CCN(CC(=O)O)CCN(CC(=O)O)CC6)CCN5c5nccc(NCCc6n[nH]c7ccccc67)n5)nn4)(C2)C3)s1.[Lu+3]` [Compound 115] the same measures were 8.00 to 8.60 and less than 8.00.
Take `CC(CCC(=O)N[C@@H](CC(=O)N[C@@H](CC(=O)NC1(CCCCn2cc(CCCCC(=O)Nc3nnc(S(N)(=O)=O)s3)nn2)CCN(C(=O)OCCOCCNC(=O)CN2CCN(CC(=O)O)CCN(CC(=O)O)CCN(CC(=O)O)CC2)CC1)C(=O)O)C(=O)O)(c1ccc(O)cc1)c1ccc(O)cc1.[Lu+3]` [Compound 116.1]: the pKd was 8.60 to 9.00 on human CA-IX (setting [3]) and 8.00 to 8.60 at human CA-XII (setting [4]).
For `CC(CCC(=O)N[C@@H](CC(=O)N[C@@H](CC(=O)NC1(CCCCn2cc(CCCC(=O)Nc3nnc(S(N)(=O)=O)s3)nn2)CCN(C(=O)OCCOCCNC(=O)CN2CCN(CC(=O)O)CCN(CC(=O)O)CCN(CC(=O)O)CC2)CC1)C(=O)O)C(=O)O)(c1ccc(O)cc1)c1ccc(O)cc1.[Lu+3]` [Compound 116.2] the same measures were 8.60 to 9.00 and 8.00 to 8.60.
For `CC(CCC(=O)N[C@@H](CC(=O)N[C@@H](CC(=O)NC1(CCCCn2cc(CCC(=O)Nc3nnc(S(N)(=O)=O)s3)nn2)CCN(C(=O)OCCOCCNC(=O)CN2CCN(CC(=O)O)CCN(CC(=O)O)CCN(CC(=O)O)CC2)CC1)C(=O)O)C(=O)O)(c1ccc(O)cc1)c1ccc(O)cc1.[Lu+3]` [Compound 116.4] the same measures were 8.00 to 8.60 and less than 8.00.
Consider `CC(CCC(=O)N[C@@H](CC(=O)N[C@@H](CC(=O)NC1(CCCCn2cc(CCCC(=O)Nc3nnc(S(N)(=O)=O)s3)nn2)CCN(C(=O)CN2CCN(CC(=O)O)CCN(CC(=O)O)CCN(CC(=O)O)CC2)CC1)C(=O)O)C(=O)O)(c1ccc(O)cc1)c1ccc(O)cc1.[Lu+3]` [Compound 116], for which the pKd on human CA-IX (setting [1]) is 8.60 to 9.00; on human CA-XII (setting [2]), 8.00 to 8.60.
